Data taken from patent US7473433B2, “Pulmonary delivery of polyene antifungal agents” (priority 2000, dated 2009).
Values after ≈ are worked out from the molar mass of the structure shown. Read-outs that look alike come from different tables or passages of the source.

Legend:
[1] = cited from earlier work
[2] = Apparent solubility of AmB in pH-adjusted methanol; format: physicochemical; conditions: for Solubility: 0 °C, MeOH
Method: (§1) In an attempt to reduce the extent of chemical degradation of amphotericin, while also finding solution conditions under which amphotericin B was reasonably soluble (e.g., to an extent greater than about 1 mg/mL), solubility experiments were conducted. The experiments were performed at room temperature for the first 2 hour while adjusting for solution pH. After the amphotericin B was completely dissolved, the samples were transferred to a 4° C. refrigerator for further chemical stability analysis. Table 7 summarizes the formulation details and apparent solubilities at specific pH conditions.
Additional solubility of amphotericin B and stability of the representative formulation, R0140, was investigated. The solubility of amphotericin at pH 5 and at pH 4.7 was investigated; additionally, the chemical stability of amphotericin B at pH 4.8 was further examined. In these experiments, samples were placed in an ice bath during the formulation preparation.

[3] = format: physicochemical; conditions: for % AmB pH 3: MeOH pH 3, ice bath; for % AmB pH 4: MeOH pH 4, ice bath
Description: The “extent of degradation” of a polyene is the percentage of polyene contained in the dry powder composition determined to be chemically modified from the intact starting material, as determined by a suitable chemical assay (e.g., NMR, HPLC, etc.); 100% of the polyene remaining chemically intact during the spray drying process represents an extent of degradation of 0%.
• Amphotericin B (Spectrum, New Brunswick, N.J.; Alapharma) • Nystatin (Spectrum, New Brunswick, N.J.) • Methanol dehydrated, HPLC grade (EM Industries, Gibbstown, N.J.) • Sodium Hydroxide, 50% (J. T. Baker, Phillipsburg, N.J.) • L-Leucine (Aldrich) • Hydrochloric Acid (J. T. Baker, Phillipsburg, N.J.) • Sodium Deoxycholate (Spectrum, New Brunswick, N.J.) Methods • Reverse Phase-HPLC • RP-HPLC analysis was performed on a Waters 2690HPLC system with a Waters Detector 996 (Skywalker, Inhale No.101232). The system was equipped with either a Vydac C-18 column or an YMC ODC-AQ™ C-18 column. Samples were eluted with a gradient mobile phases consisted of 10 mM sodium acetate buffer (mobile phase A) at pH 5 and CAN (mobile phase B). The flow rate was maintained at 1.0 ml/min, the detector wavelength was 383 nm, and the injection volume was 30μL (microliter). Stability Samples
as §1
Solutions were prepared as follows. Amphotericin B (AmB) was added to MeOH (3 mg AmB/mL) at either room temperature or in an ice bath. […] The chemical stability of AmB was determined by an HPLC assay as a function of time over 24 hours.

[4] = Solubility of polyenes and excipients in single solvents; format: physicochemical
Method: The solubility of amphotericin and excipients/additives of interest was determined in various solvents in an attempt to find a solvent system suitable for spray drying (i.e., having a sufficiently high vapor pressure) and capable of dissolving both amphotericin and any added excipients at an extent greater than about 10 mg/mL solvent. Although active agents can be spray-dried as suspensions, having the formulation components dissolved in solution provides resulting particles having a homogeneous composition (i.e., when comparing one particle to another particle)—that is to say, each particle in the composition has approximately the same composition and distribution of formulation components.
Amphotericin B is soluble in water at pHs lower than 3 and higher than 10, but only to a limited extent (0.2 mg/ml) —making the volume of solvent required for spray drying under these conditions too large to be reasonably handled. Thus, the following solubilities were experimentally determined to find a single (non-mixed) solvent system for spray drying representative amphotericin B and nystatin formulations.

## C[C@@H]1[C@H](O)[C@@H](C)/C=C/C=C/C=C/C=C/C=C/C=C/C=C/[C@H](O[C@@H]2O[C@H](C)[C@@H](O)[C@H](N)[C@@H]2O)C[C@@H]2O[C@](O)(C[C@@H](O)C[C@@H](O)[C@H](O)CC[C@@H](O)C[C@@H](O)CC(=O)O[C@H]1C)C[C@H](O)[C@H]2C(=O)O [Amphotericin B]
[1]; water at pH 6 to 7
  Solubility in water: insoluble
[1]; water at pHs lower than 3 and higher than 10
  Solubility in water: 0.2 mg/mL (≈ 0.216 mM)
[2]; pH 4.7, organic solvent or mixture, pH 4.7, in ice
  Solubility: 3400 µg/mL (≈ 3.68 mM)
[2]; pH 5, organic solvent or mixture, pH 5.0, in ice
  Solubility: ~3000 µg/mL (≈ 3.25 mM)
[2]; organic solvent or mixture, in MeOH, room temperature, pH of the formulation 4.4, 6.9 or 9.6
  solubility at 2 h: 2900 µg/mL (≈ 3.14 mM)
[3]; 4 hr
  % AmB pH 3: 93%
  % AmB pH 4: 96%
[3]; 18.5 hr
  % AmB pH 3: 90%
  % AmB pH 4: 97%
[3]; 26 hr
  % AmB pH 3: 85%
  % AmB pH 4: 93%
[3]; […]
  % AmB pH 3: 95%
[3]; 1 hr
  % AmB pH 4: 94%
[3]; MeOH pH 4.8, in ice bath, 4 hr
  % AmB: 99%
[3]; MeOH pH 4.8, in ice bath, 6 hr
  % AmB: 97%
[3]; MeOH pH 4.8, in ice bath, 8 hr
  % AmB: 94%
[3]; MeOH pH 4.8, in ice bath, 24 hr
  % AmB: 97%
[3]; MeOH pH 4.8, in ice bath, […]
  % AmB: 97%
[3]; MeOH pH 4.8, room temperature, 4 hr
  % AmB: 85%
[3]; MeOH pH 4.8, room temperature, 6 hr
  % AmB: 83%
[3]; MeOH pH 4.8, room temperature, 8 hr
  % AmB: 84%
[3]; MeOH pH 4.8, room temperature, 24 hr
  % AmB: 78%
[3]; MeOH pH 4.8, room temperature, […]
  % AmB: 89%
[3]; MeOH solution, T = 8 hr (4° C. after first 2 hr)
  AmB (%): about 92%
[3]; MeOH, pH 4.8, in ice
  Main Peak %: 92.0%
[3]; MeOH, pH 4.8, in ice, during formulation preparation
  AmB (%): 97%

## C[C@@H]1[C@H](O)[C@@H](C)/C=C/C=C/CC/C=C/C=C/C=C/C=C/C(O[C@H]2O[C@H](C)[C@@H](O)[C@H](N)[C@@H]2O)CC2O[C@](O)(CC(O)C(O)CCC(O)CC(O)CC(O)CC(=O)O[C@H]1C)CC(O)C2C(=O)O (stereo partly drawn) [Nystatin]
[4]; Acetone
  Solubility: 0.1 mg compound/g solvent
[4]; Chloroform
  Solubility: 0.7 mg compound/g solvent
[4]; DI Water
  Solubility: 1.1 mg compound/g solvent
[4]; Ethanol
  Solubility: 0.8 mg compound/g solvent
[4]; Ethyl Ether
  Solubility: 0.1 mg compound/g solvent
[4]; Hexane
  Solubility: 0.0 mg compound/g solvent
[4]; IP Acetate
  Solubility: 0.1 mg compound/g solvent
[4]; IPA
  Solubility: 0.1 mg compound/g solvent
[4]; Isobutyl Alcohol
  Solubility: 0.5 mg compound/g solvent
[4]; Meth. Chloride
  Solubility: 3.9 mg compound/g solvent
[4]; Methanol
  Solubility: 11.0 mg compound/g solvent
[4]; Pet. Ether
  Solubility: 0.0 mg compound/g solvent
[4]; THF
  Solubility: 1.6 mg compound/g solvent
